The structures appear in SMILES notation.

The target of assay [1] is Integrin alpha-IIb/beta-3 (Homo sapiens, UniProt P05106+P08514). Briefly: Inhibition of [125I]- Fg binding to fibrinogen receptor of activated human platelets.
For a further assay, the species on record is Homo sapiens. Kind of assay: Evaluated for human platelet aggregation. Type of assay: functional.

Sequence of Integrin alpha-IIb/beta-3 (P05106 27-788 limits assumed): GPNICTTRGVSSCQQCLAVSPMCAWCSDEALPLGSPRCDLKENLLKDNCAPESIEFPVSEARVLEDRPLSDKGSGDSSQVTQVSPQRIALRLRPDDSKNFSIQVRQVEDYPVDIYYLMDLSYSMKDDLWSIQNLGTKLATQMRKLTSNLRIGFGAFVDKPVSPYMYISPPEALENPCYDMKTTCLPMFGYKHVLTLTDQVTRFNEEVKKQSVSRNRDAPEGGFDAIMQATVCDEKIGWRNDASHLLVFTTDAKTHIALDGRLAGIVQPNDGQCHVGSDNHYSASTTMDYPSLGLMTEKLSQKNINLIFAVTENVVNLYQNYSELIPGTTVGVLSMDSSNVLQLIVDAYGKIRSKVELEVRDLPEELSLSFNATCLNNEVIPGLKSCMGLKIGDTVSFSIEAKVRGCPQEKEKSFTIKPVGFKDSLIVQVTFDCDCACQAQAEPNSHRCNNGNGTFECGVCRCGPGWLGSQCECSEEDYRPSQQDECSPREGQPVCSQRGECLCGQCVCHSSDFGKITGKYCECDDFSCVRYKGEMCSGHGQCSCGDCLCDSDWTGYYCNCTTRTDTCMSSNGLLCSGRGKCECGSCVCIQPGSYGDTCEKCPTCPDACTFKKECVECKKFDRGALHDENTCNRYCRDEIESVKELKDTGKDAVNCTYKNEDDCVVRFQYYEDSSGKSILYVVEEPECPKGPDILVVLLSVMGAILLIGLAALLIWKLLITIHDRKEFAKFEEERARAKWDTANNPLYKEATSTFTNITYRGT
Sequence of Integrin alpha-IIb/beta-3 (P08514 32-887 limits assumed): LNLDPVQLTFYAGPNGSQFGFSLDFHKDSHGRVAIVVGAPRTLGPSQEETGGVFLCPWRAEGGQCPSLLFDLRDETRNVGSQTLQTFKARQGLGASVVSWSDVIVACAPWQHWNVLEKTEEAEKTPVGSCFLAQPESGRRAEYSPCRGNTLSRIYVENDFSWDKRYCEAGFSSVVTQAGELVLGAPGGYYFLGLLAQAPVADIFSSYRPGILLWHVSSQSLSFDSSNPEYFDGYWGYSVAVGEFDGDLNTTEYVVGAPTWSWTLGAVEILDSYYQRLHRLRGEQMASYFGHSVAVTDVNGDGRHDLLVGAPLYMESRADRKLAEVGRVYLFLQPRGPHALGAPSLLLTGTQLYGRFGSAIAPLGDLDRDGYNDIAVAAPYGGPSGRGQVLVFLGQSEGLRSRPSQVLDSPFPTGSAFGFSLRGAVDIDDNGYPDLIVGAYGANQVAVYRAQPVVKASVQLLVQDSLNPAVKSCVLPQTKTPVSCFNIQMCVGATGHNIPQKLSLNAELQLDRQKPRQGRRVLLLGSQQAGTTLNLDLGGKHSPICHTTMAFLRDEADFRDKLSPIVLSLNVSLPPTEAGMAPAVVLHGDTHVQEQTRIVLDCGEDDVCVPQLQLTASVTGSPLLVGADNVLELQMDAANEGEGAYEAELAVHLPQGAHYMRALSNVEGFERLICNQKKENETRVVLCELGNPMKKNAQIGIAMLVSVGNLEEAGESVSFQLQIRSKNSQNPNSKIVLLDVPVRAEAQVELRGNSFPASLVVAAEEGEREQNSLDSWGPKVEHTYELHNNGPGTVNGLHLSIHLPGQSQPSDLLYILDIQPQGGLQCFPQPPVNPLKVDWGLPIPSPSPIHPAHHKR
Sequence of Integrin alpha-IIb/beta-3 (P08514 891-1039 limits assumed): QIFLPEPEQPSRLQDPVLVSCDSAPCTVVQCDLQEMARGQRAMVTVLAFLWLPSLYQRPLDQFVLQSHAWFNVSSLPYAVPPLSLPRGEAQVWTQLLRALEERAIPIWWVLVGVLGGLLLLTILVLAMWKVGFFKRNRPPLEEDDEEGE

`CCCCS(=O)(=O)N[C@H](CCC(=O)O)C(=O)N1CCC(CCCC2CCNCC2)CC1`: in assay [1], the IC50 (as a rule, the concentration that gives 50% inhibition) is 130 nM. Regarding `O=C(O)[C@H](CCC(=O)N1CCC(CCCC2CCNCC2)CC1)NS(=O)(=O)c1cccc2ccccc12`, the half-inhibitory concentration (IC50) in assay [1] amounted to 40 nM; in the assay listed under Homo sapiens, 10 nM. In the same order, the values of `O=C(O)[C@H](CCC(=O)N1CCC(CCCC2CCNCC2)CC1)NS(=O)(=O)Cc1ccccc1` are 20 nM and 20 nM. Turning to `CCCCS(=O)(=O)N[C@H](CCC(=O)N1CCC(CCCC2CCNCC2)CC1)C(=O)O`, in assay [1], the half-inhibitory concentration (IC50) is > 25000 nM. As to `CCCCCN[C@@H](CCC(=O)N1CCC(CCCC2CCNCC2)CC1)C(=O)O`, the 50% inhibitory concentration (IC50) in assay [1] stood at 8400 nM. Still for that read-out and setting: next, `O=C(O)[C@H](CCC(=O)N1CCC(CCCC2CCNCC2)CC1)NS(=O)(=O)c1ccccc1`: 30 nM; `CCCCC(=O)N[C@@H](CCC(=O)N1CCC(CCCC2CCNCC2)CC1)C(=O)O`: 250 nM. On the same count and under the same terms, next, `CCCCS(=O)(=O)N[C@@H](CCC(=O)O)C(=O)N1CCC(CCCC2CCNCC2)CC1`: > 25000 nM. `O=C(O)[C@H](CCC(=O)N1CCC(CCCC2CCNCC2)CC1)NS(=O)(=O)c1ccc(-c2ccccc2)cc1`: the IC50 (in assay [1]; in the assay filed under Homo sapiens) was 30 nM throughout.

Molecule `O=C(O)CCCC(=O)N1CCC(CCCC2CCNCC2)CC1` returned a 50% inhibitory concentration (IC50) in assay [1] of 3000 nM.

With `CCCCCCCCS(=O)(=O)N[C@@H](CCC(=O)N1CCC(CCCC2CCNCC2)CC1)C(=O)O`, the IC50 in assay [1] came to 70 nM; in the assay filed under Homo sapiens, 130 nM. Take `CCCCS(=O)(=O)NC(CC(=O)O)CC(=O)N1CCC(CCCC2CCNCC2)CC1` (centres undefined): in assay [1], the 50% inhibitory concentration (IC50) was found to be 950 nM. Regarding `O=C(O)CCC(=O)N1CCC(CCCC2CCNCC2)CC1`, the IC50 in assay [1] is > 25000 nM.

`CCCc1ccc(S(=O)(=O)N[C@@H](CCC(=O)N2CCC(CCCC3CCNCC3)CC2)C(=O)O)cc1`: the values for the half-maximal inhibitory concentration (IC50) (in assay [1]; in the assay filed under Homo sapiens) were 10 nM and 20 nM, respectively. For `CCCCS(=O)(=O)N[C@@H](CCC(=O)N1CCC(CCCC2CCNCC2)CC1)C(=O)O`, the figures for the IC50 (in assay [1]; in the assay listed under Homo sapiens) were 110 nM and 70 nM, respectively.

Take `O=C(O)[C@H](CCC(=O)N1CCC(CCCC2CCNCC2)CC1)NS(=O)(=O)c1ccc2ccccc2c1`: the results for the concentration for half-maximal inhibition (IC50) (in assay [1]; in the assay listed under Homo sapiens) were 40 nM and 10 nM, respectively. In assay [1], `O=C(O)CCCCC(=O)N1CCC(CCCC2CCNCC2)CC1` displayed a concentration for half-maximal inhibition (IC50) of 6700 nM.
